Results published in ChEMBL document CHEMBL1142871, “Flipped out: structure-guided design of selective pyrazolylpyrrole ERK inhibitors” (J Med Chem, 2007).

Key:
[1] = target: Mitogen-activated protein kinase 1 (Homo sapiens, UniProt P28482); assay: Inhibition of ERK2 by spectrophotometric coupled-enzyme assay
[2] = target: Mitogen-activated protein kinase 10 (Homo sapiens, UniProt P53779); assay: Inhibition of JNK3 at 10 nM by spectrophotometric coupled-enzyme assay
[3] = target: cAMP-dependent protein kinase (PKA) (Homo sapiens, UniProt P22694+P17612+P22612); assay: Inhibition of PKA; type: protein assay
[4] = target: T1, Receptor-type tyrosine-protein kinase FLT3 (Homo sapiens, UniProt P36888); assay: Inhibition of FLT3 kinase
T1 sequence (P36888 whole entry): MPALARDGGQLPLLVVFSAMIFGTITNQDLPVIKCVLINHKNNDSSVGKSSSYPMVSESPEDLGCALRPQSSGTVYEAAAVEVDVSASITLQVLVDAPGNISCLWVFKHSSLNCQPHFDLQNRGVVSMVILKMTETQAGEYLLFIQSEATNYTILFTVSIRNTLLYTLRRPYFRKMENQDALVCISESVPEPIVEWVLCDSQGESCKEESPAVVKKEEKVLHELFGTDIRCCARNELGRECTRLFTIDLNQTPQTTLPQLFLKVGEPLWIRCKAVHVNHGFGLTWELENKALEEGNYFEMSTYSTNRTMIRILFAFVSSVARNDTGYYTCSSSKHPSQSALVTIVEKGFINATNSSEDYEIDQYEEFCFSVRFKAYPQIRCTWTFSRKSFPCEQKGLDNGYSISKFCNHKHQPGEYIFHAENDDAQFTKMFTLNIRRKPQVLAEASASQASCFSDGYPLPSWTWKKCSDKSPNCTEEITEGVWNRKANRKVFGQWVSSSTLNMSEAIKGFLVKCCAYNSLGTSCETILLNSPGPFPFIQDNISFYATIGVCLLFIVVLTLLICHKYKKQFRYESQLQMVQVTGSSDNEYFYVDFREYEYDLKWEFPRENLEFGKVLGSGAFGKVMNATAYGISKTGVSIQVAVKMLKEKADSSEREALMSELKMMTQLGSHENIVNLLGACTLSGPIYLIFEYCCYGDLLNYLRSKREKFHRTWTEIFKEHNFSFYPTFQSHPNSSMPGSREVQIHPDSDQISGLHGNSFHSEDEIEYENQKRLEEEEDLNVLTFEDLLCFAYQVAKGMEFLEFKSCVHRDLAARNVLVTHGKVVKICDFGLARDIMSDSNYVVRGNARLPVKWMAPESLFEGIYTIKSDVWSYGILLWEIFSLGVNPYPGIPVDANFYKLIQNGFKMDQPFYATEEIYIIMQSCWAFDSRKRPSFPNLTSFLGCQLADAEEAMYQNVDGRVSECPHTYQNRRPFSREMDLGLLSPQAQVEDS

[5] = target: Proto-oncogene tyrosine-protein kinase Src (Homo sapiens, UniProt P12931); assay: Inhibition of SRC kinase
[6] = target: RAC-gamma serine/threonine-protein kinase (Homo sapiens, UniProt Q9Y243); assay: Inhibition of AKT3 kinase
[7] = target: Glycogen synthase kinase-3 (Homo sapiens, UniProt P49840+P49841); assay: Inhibition of GSK3; type: protein assay
[8] = target: Vascular endothelial growth factor receptor 2 (Homo sapiens, UniProt P35968); assay: Inhibition of KDR kinase
Aurora kinase A = target: T2, Aurora kinase A (Homo sapiens, UniProt O14965); assay: Inhibition of AURA kinase
T2 sequence (O14965 whole entry): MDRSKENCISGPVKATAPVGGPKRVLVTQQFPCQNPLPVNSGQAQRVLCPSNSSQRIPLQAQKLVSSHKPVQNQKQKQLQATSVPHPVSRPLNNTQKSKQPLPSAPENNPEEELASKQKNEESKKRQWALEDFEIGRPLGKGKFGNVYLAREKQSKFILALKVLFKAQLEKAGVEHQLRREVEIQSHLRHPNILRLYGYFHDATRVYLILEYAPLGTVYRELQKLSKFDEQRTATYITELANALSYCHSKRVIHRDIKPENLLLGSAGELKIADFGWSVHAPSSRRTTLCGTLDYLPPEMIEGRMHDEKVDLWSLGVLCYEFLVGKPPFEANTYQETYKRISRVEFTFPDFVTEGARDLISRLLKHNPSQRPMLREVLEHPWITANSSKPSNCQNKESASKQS

[9] = target: Cyclin-dependent kinase 2 (Homo sapiens, UniProt P24941); assay: Inhibition of CDK2
[10] = target: Dual specificity mitogen-activated protein kinase kinase 1 (Homo sapiens, UniProt Q02750); assay: Inhibition of MEK1
[11] = target: Mitogen-activated protein kinase 14 (Homo sapiens, UniProt Q16539); assay: Inhibition of p38 alpha kinase
COLO 205 = assay: Antiproliferative activity against Colo205 cells measured by [3H]thymidine incorporation after 48 hrs; type: functional, cell-based; conditions: Homo sapiens

Mitogen-activated protein kinase 1, sequence (P28482 whole entry): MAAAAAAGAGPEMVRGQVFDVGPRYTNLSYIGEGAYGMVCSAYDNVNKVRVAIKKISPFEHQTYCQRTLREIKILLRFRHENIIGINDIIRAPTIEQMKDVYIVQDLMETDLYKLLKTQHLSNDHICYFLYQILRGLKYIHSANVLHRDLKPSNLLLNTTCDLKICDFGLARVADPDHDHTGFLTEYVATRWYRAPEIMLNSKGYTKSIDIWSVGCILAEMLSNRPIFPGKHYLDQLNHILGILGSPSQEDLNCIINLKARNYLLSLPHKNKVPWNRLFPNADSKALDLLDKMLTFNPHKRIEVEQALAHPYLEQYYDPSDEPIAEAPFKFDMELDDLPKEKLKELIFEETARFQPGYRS
Mitogen-activated protein kinase 10, sequence (P53779 whole entry): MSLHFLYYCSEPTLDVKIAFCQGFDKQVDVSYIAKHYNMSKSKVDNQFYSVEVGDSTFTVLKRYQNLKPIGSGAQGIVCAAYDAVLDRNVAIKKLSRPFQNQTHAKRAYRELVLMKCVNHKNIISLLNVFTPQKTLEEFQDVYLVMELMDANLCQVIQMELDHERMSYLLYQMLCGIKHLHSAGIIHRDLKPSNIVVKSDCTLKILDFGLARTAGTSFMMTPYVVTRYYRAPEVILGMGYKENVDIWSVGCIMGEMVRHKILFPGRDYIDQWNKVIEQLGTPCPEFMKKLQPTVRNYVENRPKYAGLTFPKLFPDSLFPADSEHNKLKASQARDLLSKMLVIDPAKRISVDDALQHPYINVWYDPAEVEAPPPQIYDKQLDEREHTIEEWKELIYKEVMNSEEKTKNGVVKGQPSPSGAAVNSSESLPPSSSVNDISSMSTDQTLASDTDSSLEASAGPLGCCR
RAC-gamma serine/threonine-protein kinase, sequence (Q9Y243 whole entry): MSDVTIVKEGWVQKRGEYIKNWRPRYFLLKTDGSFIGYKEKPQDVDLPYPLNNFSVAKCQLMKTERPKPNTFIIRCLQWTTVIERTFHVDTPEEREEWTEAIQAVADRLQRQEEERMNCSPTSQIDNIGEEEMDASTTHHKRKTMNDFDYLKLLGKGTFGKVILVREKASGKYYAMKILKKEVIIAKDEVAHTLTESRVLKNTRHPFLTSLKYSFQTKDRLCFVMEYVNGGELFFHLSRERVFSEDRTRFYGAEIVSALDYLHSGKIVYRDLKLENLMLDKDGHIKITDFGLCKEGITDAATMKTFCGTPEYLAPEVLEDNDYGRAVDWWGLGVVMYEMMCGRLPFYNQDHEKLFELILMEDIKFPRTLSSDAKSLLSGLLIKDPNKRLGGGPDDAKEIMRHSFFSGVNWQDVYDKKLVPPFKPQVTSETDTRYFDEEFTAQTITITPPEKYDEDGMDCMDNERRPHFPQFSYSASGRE
Mitogen-activated protein kinase 14, sequence (Q16539 whole entry): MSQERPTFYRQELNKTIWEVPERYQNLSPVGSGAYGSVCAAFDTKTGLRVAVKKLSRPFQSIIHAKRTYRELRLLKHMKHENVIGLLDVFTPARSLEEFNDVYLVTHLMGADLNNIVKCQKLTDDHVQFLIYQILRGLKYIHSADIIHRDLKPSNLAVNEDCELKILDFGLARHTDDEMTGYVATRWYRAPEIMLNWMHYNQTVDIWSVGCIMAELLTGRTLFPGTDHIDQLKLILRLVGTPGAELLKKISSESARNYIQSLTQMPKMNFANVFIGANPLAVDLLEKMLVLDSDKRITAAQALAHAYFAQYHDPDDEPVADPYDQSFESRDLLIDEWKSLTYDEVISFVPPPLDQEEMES
Dual specificity mitogen-activated protein kinase kinase 1, sequence (Q02750 whole entry): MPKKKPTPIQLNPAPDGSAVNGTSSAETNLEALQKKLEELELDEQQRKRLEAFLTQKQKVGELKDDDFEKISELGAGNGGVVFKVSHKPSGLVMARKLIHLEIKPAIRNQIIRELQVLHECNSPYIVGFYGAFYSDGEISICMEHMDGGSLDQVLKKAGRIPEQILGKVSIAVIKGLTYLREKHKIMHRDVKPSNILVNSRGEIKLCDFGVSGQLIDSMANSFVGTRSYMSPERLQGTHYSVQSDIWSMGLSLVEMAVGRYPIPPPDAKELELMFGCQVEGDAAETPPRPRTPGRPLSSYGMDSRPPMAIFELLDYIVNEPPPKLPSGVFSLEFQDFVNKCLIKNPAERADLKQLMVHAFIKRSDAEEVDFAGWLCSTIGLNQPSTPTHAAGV
Proto-oncogene tyrosine-protein kinase Src, sequence (P12931 2-536 limits assumed): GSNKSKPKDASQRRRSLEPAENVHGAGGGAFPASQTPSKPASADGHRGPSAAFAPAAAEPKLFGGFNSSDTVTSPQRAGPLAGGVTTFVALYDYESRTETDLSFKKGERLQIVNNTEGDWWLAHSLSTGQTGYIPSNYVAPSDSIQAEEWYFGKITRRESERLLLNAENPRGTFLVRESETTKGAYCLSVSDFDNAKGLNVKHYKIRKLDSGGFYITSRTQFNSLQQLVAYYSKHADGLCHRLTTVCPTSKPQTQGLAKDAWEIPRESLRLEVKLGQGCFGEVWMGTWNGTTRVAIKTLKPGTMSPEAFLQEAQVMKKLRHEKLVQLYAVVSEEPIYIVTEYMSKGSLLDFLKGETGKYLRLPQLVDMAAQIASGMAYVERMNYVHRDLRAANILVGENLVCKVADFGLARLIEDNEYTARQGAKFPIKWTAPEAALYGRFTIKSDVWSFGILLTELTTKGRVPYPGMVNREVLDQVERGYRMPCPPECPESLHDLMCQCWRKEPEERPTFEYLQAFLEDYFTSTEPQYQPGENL
Vascular endothelial growth factor receptor 2, sequence (P35968 whole entry): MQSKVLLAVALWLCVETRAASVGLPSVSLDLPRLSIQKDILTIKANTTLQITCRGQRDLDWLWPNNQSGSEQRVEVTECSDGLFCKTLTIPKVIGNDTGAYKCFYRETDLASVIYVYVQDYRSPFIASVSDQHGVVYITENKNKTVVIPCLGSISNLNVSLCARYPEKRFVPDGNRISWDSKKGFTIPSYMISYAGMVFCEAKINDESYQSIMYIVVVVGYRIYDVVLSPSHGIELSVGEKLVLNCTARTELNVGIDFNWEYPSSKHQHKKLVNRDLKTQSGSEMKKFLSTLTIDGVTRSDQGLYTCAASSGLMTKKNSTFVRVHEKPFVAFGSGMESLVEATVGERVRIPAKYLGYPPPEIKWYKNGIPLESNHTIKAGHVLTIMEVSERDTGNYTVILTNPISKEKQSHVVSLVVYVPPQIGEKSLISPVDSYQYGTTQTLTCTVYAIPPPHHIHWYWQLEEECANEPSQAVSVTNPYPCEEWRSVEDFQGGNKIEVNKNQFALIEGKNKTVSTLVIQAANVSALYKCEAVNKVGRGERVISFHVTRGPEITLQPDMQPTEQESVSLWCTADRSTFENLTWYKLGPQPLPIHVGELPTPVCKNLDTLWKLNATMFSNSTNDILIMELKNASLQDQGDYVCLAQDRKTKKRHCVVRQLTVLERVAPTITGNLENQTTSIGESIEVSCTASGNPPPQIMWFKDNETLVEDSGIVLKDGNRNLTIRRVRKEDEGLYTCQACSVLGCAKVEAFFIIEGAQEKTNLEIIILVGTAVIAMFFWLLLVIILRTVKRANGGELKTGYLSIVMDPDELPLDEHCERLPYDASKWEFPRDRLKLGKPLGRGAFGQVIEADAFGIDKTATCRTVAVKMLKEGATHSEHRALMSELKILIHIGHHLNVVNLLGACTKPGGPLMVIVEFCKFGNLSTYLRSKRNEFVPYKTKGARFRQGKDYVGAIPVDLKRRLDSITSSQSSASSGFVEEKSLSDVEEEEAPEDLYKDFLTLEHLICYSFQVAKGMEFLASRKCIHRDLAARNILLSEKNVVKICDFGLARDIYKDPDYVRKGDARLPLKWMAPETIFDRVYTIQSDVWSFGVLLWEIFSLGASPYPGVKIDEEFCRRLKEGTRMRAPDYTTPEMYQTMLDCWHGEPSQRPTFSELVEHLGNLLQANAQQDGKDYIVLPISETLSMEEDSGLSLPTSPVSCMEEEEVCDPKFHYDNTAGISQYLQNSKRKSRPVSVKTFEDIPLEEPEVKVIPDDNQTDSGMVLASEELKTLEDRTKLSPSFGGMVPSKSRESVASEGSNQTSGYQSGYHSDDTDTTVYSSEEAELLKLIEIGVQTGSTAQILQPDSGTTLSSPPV

Compound	Ki [1]	Ki [2]	also measured
O=C(N[C@H](C(=O)O)c1ccccc1)c1cc(-c2n[nH]cc2-c2cccc(Cl)c2)c[nH]1	> 5000 nM	> 4000 nM	–
O=C(NCC1CCCO1)c1cc(-c2[nH]ncc2-c2cccc(Cl)c2)c[nH]1 (stereo not given)	–	2700 nM	–
O=C(NC(CO)c1ccc(F)c(F)c1)c1cc(-c2n[nH]cc2-c2cccc(Cl)c2)c[nH]1 (stereo not given)	22 nM	2800 nM	–
CN(C)C(=O)c1cc(-c2n[nH]cc2-c2ccccc2)c[nH]1	–	> 4000 nM	–
O=C(NC(CO)c1cccc(F)c1)c1cc(-c2[nH]ncc2-c2cccc(Cl)c2)c[nH]1 (stereo not given)	24 nM	3000 nM	–
O=C(NC(CO)c1ccccc1F)c1cc(-c2[nH]ncc2-c2cccc(Cl)c2)c[nH]1 (stereo not given)	240 nM	3100 nM	–
O=C(NC(CO)c1ccc(F)c(Cl)c1)c1cc(-c2[nH]ncc2-c2cccc(Cl)c2)c[nH]1 (stereo not given)	6 nM	–	–
CNC(=O)[C@@H](NC(=O)c1cc(-c2[nH]ncc2-c2cccc(Cl)c2)c[nH]1)c1ccccc1	2300 nM	3900 nM	–
O=C(c1cc(-c2[nH]ncc2-c2cccc(Cl)c2)c[nH]1)N1CCCC1	200 nM	1800 nM	–
O=C(N[C@H](CO)c1ccccc1)c1cc(-c2[nH]ncc2-c2cccc(Cl)c2)c[nH]1	–	2800 nM	–
O=C(NC1c2ccccc2CC1O)c1cc(-c2[nH]ncc2-c2cccc(Cl)c2)c[nH]1 (stereo not given)	4000 nM	3200 nM	–
O=C(NOCc1ccccc1)c1cc(-c2[nH]ncc2-c2cccc(Cl)c2)c[nH]1	–	2900 nM	–
O=C(N[C@@H](CO)c1ccc(F)c(Cl)c1)c1cc(-c2n[nH]cc2-c2cccc(Cl)c2)c[nH]1	150 nM	> 4000 nM	–
NC(=O)[C@@H](NC(=O)c1cc(-c2[nH]ncc2-c2cccc(Cl)c2)c[nH]1)c1ccccc1	510 nM	3300 nM	–
O=C(NC(CO)c1cc(Cl)cc(Cl)c1)c1cc(-c2n[nH]cc2-c2cccc(Cl)c2)c[nH]1 (stereo not given)	7 nM	3400 nM	–
C[C@H](NC(=O)c1cc(-c2n[nH]cc2-c2cccc(Cl)c2)c[nH]1)c1ccccc1	660 nM	> 4000 nM	–
O=C(NCc1ccc(F)c(F)c1)c1cc(-c2n[nH]cc2-c2cccc(Cl)c2)c[nH]1	40 nM	790 nM	–
O=C(NC(CO)c1ccc(C(F)(F)F)cc1)c1cc(-c2n[nH]cc2-c2cccc(Cl)c2)c[nH]1 (stereo not given)	44 nM	2700 nM	–
COc1ccc(CNC(=O)c2cc(-c3n[nH]cc3-c3cccc(Cl)c3)c[nH]2)cc1	490 nM	840 nM	–
O=C(NCCc1cccnc1)c1cc(-c2[nH]ncc2-c2cccc(Cl)c2)c[nH]1	330 nM	> 4000 nM	–
C[C@@H](NC(=O)c1cc(-c2n[nH]cc2-c2cccc(Cl)c2)c[nH]1)c1ccccc1	100 nM	3100 nM	–
CCN1CCCC1CNC(=O)c1cc(-c2n[nH]cc2-c2cccc(Cl)c2)c[nH]1 (stereo not given)	> 10000 nM	> 4000 nM	–
CN(Cc1ccccc1)C(=O)c1cc(-c2[nH]ncc2-c2cccc(Cl)c2)c[nH]1	440 nM	> 4000 nM	–
O=C(NC(CO)c1ccc(F)cc1)c1cc(-c2n[nH]cc2-c2cccc(Cl)c2)c[nH]1 (stereo not given)	63 nM	> 4000 nM	–
CCN(C)C(=O)c1cc(-c2n[nH]cc2-c2cccc(Cl)c2)c[nH]1	–	> 4000 nM	–
O=C(NC(CO)c1ccc(Cl)cc1)c1cc(-c2n[nH]cc2-c2cccc(Cl)c2)c[nH]1 (stereo not given)	14 nM	2500 nM	–
O=C(c1cc(-c2[nH]ncc2-c2cccc(Cl)c2)c[nH]1)N1CCc2ccccc2C1	510 nM	> 4000 nM	–
O=C(N[C@H](CO)c1ccc(F)c(Cl)c1)c1cc(-c2n[nH]cc2-c2cccc(Cl)c2)c[nH]1	–	> 4000 nM	Ki [3]: 390 nM; Ki [4]: 750 nM; Ki [5]: 1100 nM; Ki [6]: 1800 nM; Ki [7]: 3300 nM; Ki [8]: 3900 nM; Ki (Aurora kinase A): > 4000 nM; Ki [9]: > 4000 nM; Ki [10]: > 4000 nM; Ki [11]: > 4000 nM; IC50 (COLO 205): 540 nM
